Test results published in ChEMBL document CHEMBL1201862, “PubChem BioAssay data set” (2004).
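The compound was tested at five concentrations on cells cultured in 96-well plates, with a 48-hour exposure period. At the GI50, growth is halved.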 Active and inactive are the calls of the source. No stated cut-off is given here; in the data, active = GI50 up to about 1.1 µM and inactive = higher.

Key:
Experiment in all cases: inhibition of tumour cell growth, NCI panel, 48 h
SW-620 = system: SW-620
UACC-62 = system: UACC-62
K562 = system: K562
LOX IMVI = system: LOX IMVI
EKVX = system: EKVX
HOP-62 = system: HOP-62
MDA-MB-231 = system: MDA-MB-231
SF-539 = system: SF-539
OVCAR-4 = system: OVCAR-4
A498 = system: A498
COLO 205 = system: COLO 205
HCC 2998 = system: HCC 2998
CCRF-CEM = system: CCRF-CEM
KM12 = system: KM12
RPMI-8226 = system: RPMI-8226
A549 = system: A549
OVCAR-3 = system: OVCAR-3
UACC-257 = system: UACC-257
MDA-MB-435 = system: MDA-MB-435
SF-295 = system: SF-295

Measured: GI50

CCOC(=O)C(C)(C)C(O)C(C)C (stereo not given)
inactive: SW-620 > 100 µM | UACC-62 > 100 µM | K562 > 100 µM | LOX IMVI > 100 µM | EKVX > 100 µM | HOP-62 > 100 µM | MDA-MB-231 > 100 µM | SF-539 > 100 µM | OVCAR-4 > 100 µM | A498 > 100 µM | COLO 205 > 100 µM | HCC 2998 > 100 µM | CCRF-CEM > 100 µM | KM12 > 100 µM | RPMI-8226 > 100 µM | A549 > 100 µM | OVCAR-3 > 100 µM | UACC-257 > 100 µM | MDA-MB-435 > 100 µM | SF-295 > 100 µM

COC(=O)CCc1cc(OC)c(O)c(C(Cc2ccc(OC)c(OC)c2)C(=O)OC)c1 (stereo not given)
inactive: SW-620 > 100 µM | UACC-62 > 100 µM | K562 > 100 µM | LOX IMVI > 100 µM | EKVX > 100 µM | HOP-62 > 100 µM | MDA-MB-231 > 100 µM | SF-539 > 100 µM | OVCAR-4 > 100 µM | A498 > 100 µM | COLO 205 > 100 µM | HCC 2998 > 100 µM | CCRF-CEM > 100 µM | KM12 > 100 µM | RPMI-8226 > 100 µM | A549 > 100 µM | OVCAR-3 > 100 µM | UACC-257 > 100 µM | MDA-MB-435 > 100 µM | SF-295 > 100 µM

CSc1n[n+](C)cc(N)c1N
inactive: SW-620 > 100 µM | UACC-62 > 100 µM | K562 39 µM | LOX IMVI > 100 µM | EKVX > 100 µM | HOP-62 > 100 µM | MDA-MB-231 > 100 µM | SF-539 > 100 µM | OVCAR-4 > 100 µM | A498 > 100 µM | COLO 205 > 100 µM | HCC 2998 > 100 µM | CCRF-CEM > 100 µM | KM12 > 100 µM | RPMI-8226 > 100 µM | A549 > 100 µM | OVCAR-3 > 100 µM | UACC-257 52 µM | MDA-MB-435 > 100 µM | SF-295 > 100 µM

Clc1ccc(C2ON=C(c3ccccc3)N2C23CC4CC(CC(C4)C2)C3)cc1 (stereo not given)
inactive: SW-620 > 10 µM | UACC-62 > 10 µM | K562 > 10 µM | LOX IMVI > 10 µM | EKVX > 10 µM | HOP-62 > 10 µM | MDA-MB-231 > 10 µM | SF-539 > 10 µM | OVCAR-4 > 10 µM | A498 > 10 µM | COLO 205 > 10 µM | HCC 2998 > 10 µM | CCRF-CEM > 10 µM | KM12 > 10 µM | RPMI-8226 > 10 µM | A549 > 10 µM | OVCAR-3 > 10 µM | UACC-257 > 10 µM | MDA-MB-435 > 10 µM | SF-295 > 10 µM

C=C(C)C(=O)OC1C(C(C)CCCO)=C(CO)CC2OC(=O)C(=C)C21 (stereo not given)
inactive: SW-620 14.7 µM | UACC-62 14.9 µM | K562 15.2 µM | LOX IMVI 10.1 µM | EKVX 24.6 µM | HOP-62 26.5 µM | MDA-MB-231 17.5 µM | SF-539 23 µM | OVCAR-4 28.1 µM | A498 17.1 µM | COLO 205 15.1 µM | HCC 2998 17.7 µM | CCRF-CEM 12.6 µM | KM12 12.6 µM | RPMI-8226 17.1 µM | A549 23.2 µM | OVCAR-3 17.6 µM | UACC-257 17.1 µM | MDA-MB-435 19.9 µM | SF-295 47.2 µM
